Results on one compound are retold here after US20170000405A1, “RAPID, REPRODUCIBLE, NON-INVASIVE PREDICTOR OF CADAVERIC DONOR LIVER GRAFT UTILIZATION” (THE REGENTS OF THE UNIVERSITY OF CALIFORNIA, priority 2014, published 2017).

For the data set the following is noted: human, in vivo.

Description: To evaluate the method for rapid, non-invasive, quantitative assessment of liver function, performed before liver graft procurement, a LiMON liver function monitor, manufactured by Pulsion Medical Systems, Munich, Germany, was used for the assessment of brain-dead donor livers by measuring Indocyanine Green Plasma Disappearance Rates (ICG-PDRs). […] The LiMON monitor 102 measures Indocyanine Green (ICG) 104 clearance from the blood, after the ICG is administered intravenously to the donor, by non-invasive pulse-densitometry using, for example, a finger probe 106.
Injected ICG 202 is detected by a sensor 204 on the finger 206 from fractional pulsatile changes 208, 210 in optical absorption using LED lights 212. The optical peak absorption of 805 nm as shown in FIG. 2B and 905 nm as shown in FIG. 2C allows continuous measurements of ICG-PDR. The clearance of the injected dye from the blood (mg/l) can be calculated as:
The ICG-PDR is calculated as the ICG clearance (CICG) over time, as shown in the graph in FIG. 3.
Consecutive adult brain-dead donors in the local donation service area, whose livers were offered to the study center, were assessed for liver function using the methods of the current disclosure, after permission was acquired. Immediately prior to organ procurement, indocyanine green elimination tests were conducted using the non-invasive liver function monitoring system shown in FIG. 1 and FIG. 2A. Each patient received an ICG finger clip connected to a liver function monitor. A dose of 0.25 mg/kg ICG (ICG—PULSION, Pulsion Medical Systems) was given through a central vein as a bolus and immediately flushed with 10 mL of normal saline. All of the ICG-PDR measurements were acquired using the LiMON liver function monitor manufactured by Pulsion Medical Systems, Munich, Germany.

As to `CC1(C)C(/C=C/C=C/C=C/C=C2\N(CCCCS(=O)(=O)O)c3ccc4ccccc4c3C2(C)C)=[N+](CCCCS(=O)(=O)[O-])c2ccc3ccccc3c21` [ICG, Indocyanine Green], the “IGG-PDR, Mean (SD), Accepted” value is on record as 24.1 (6.7) %/min; the “IGG-PDR, Mean (SD), Rejected” value is reported as 17.9 (4.7) %/min; the “PDR, sample PULSION-LiMON ICG trace of a non-acceptable liver” value worked out at 12.9 % clearance per minute; the “PDR, sample PULSION-LiMON ICG trace of an accepted liver” value came to 21.5 % clearance per minute.
